{
  "source": "patent US11285127B2",
  "about": "“Compositions and methods for lowering triglycerides without raising LDL-C levels in a subject on concomitant statin therapy” (Amarin Pharmaceuticals Ireland Limited, priority 2013, dated 2022)",
  "tested_on": "patients with fasting triglyceride levels >200 mg/dl and <500 mg/dl despite statin therapy",
  "test": "12-week study: apolipoproteins (Apo A-1, Apo B, ratio) and lipoprotein(a)",
  "format": "in vivo, human",
  "conditions": "for Apo A1 Week 12 EP Median (IQR) / Apo B Week 12 EP Median (IQR) / Apo B/Apo A1 ratio Week 12 EP Median (IQR) / Lp (a) Week 12 EP Median (IQR) / Apo A1 Percent change from Baseline Median (IQR) / Apo B Percent change from Baseline Median (IQR) / Apo B/Apo A1 ratio Percent change from Baseline Median (IQR) / Lp (a) Percent change from Baseline Median (IQR) / Apo A1 Difference from placebo Estimated median / Apo B Difference from placebo Estimated median / Apo B/Apo A1 ratio Difference from placebo Estimated median / Lp (a) Difference from placebo Estimated median: MITT; for Apo A1 Percent change from Baseline Median (IQR) / Apo B Percent change from Baseline Median (IQR) / Apo B/Apo A1 ratio Percent change from Baseline Median (IQR) / Lp (a) Percent change from Baseline Median (IQR): Week 12 endpoint; for Apo A1 Difference from placebo Estimated median / Apo B Difference from placebo Estimated median / Apo B/Apo A1 ratio Difference from placebo Estimated median / Lp (a) Difference from placebo Estimated median: percent change from baseline to Week 12 endpoint",
  "excerpt": "Parameters (a)-(z) can be measured in accordance with any clinically acceptable methodology. For example, triglycerides, total cholesterol, HDL-C and fasting blood sugar can be sample from serum and analyzed using standard photometry techniques. VLDL-TG, LDL-C and VLDL-C can be calculated or determined using serum lipoprotein fractionation by preparative ultracentrifugation and subsequent quantitative analysis by refractometry or by analytic ultracentrifugal methodology. Apo A1, Apo B and hsCRP can be determined from serum using standard nephelometry techniques. Lipoprotein (a) can be determined from serum using standard turbidimetric immunoassay techniques. LDL particle number and particle size can be determined using nuclear magnetic resonance (NMR) spectrometry. Remnants lipoproteins and LDL-phospholipase A2 can be determined from EDTA plasma or serum and serum, respectively, using enzymatic immunoseparation techniques. Oxidized LDL, intercellular adhesion molecule-1 and interleukin-2 levels can be determined from serum using standard enzyme immunoassay techniques. These techniques are described in detail in standard textbooks, for example Tietz Fundamentals of Clinical Chemistry, 6th Ed. (Burtis, Ashwood and Borter Eds.), WB Saunders Company.\nA multi-center, placebo-controlled, randomized, double-blind, 12-week study was performed to evaluate the efficacy and safety of >96% E-EPA in patients with fasting triglyceride levels >200 mg/dl and <500 mg/dl despite statin therapy (the mean of two qualifying entry values needed to be >185 mg/dl and at least one of the values needed to be >200 mg/dl). The primary objective of the study was to determine the efficacy of >96% E-EPA 2 g daily and 4 g daily, compared to placebo, in lowering fasting TG levels in patients with high risk for cardiovascular disease and with fasting TG levels 200 mg/dl and <500 mg/dl, despite treatment to LDL-C goal on statin therapy.\nThe primary efficacy variable for the double-blind treatment period was percent change in TG from baseline to Week 12 endpoint. The secondary efficacy variables for the double-blind treatment period included the following: • Percent changes in total cholesterol (TC), high-density lipoprotein cholesterol (HDL-C), LDL-C, calculated non-HDL-C, and very low-density lipoprotein cholesterol (VLDL-C) from baseline to Week 12 endpoint; • Percent change in very low-density lipoprotein TG from baseline to Week 12; • Percent changes in apolipoprotein A-I (Apo A-1), apolipoprotein B (Apo B), and Apo A-1/Apo B ratio from baseline to Week 12; • Percent changes in lipoprotein(a) from baseline to Week 12; • Percent changes in LDL particle number and size, measured by nuclear magnetic resonance, from baseline to Week 12; • Percent change in remnant-like particle cholesterol from baseline to Week 12; • Percent change in oxidized LDL from baseline to Week 12; • Changes in FPG and HbA1c from baseline to Week 12; • Change in insulin resistance, as assessed by the homeostasis model index insulin resistance, from baseline to Week 12; • Percent change in lipoprotein associated phospholipase A2 (Lp-PLA2) from baseline to Week 12; • Change in intracellular adhesion molecule-1 from baseline to Week 12; • Change in interleukin-2 from baseline to Week 12; • Change in plasminogen activator inhibitor-1 from baseline to Week 12. Note: this parameter will only be collected at sites with proper storage conditions; • Change in hsCRP from baseline to Week 12; and • Change in plasma concentration and red blood cell membrane content of fatty acid from baseline to Week 12 including EPA, docosapentaenoic acid (DPA), docosahexaenoic acid (DHA), arachidonic acid (AA), dihomo-γ-linolenic acid (DGLA), the ratio of EPA/AA, ratio of oleic acid/stearic acid (OA/SA), and the ratio of total omega-3 acids over total omega-6 acids. […]",
  "key": {"[1]": {"conditions": "IPE 4 g/day (n = 216), 12 weeks, patients with lipoprotein data"}},
  "data": [
    {"smiles": "CC/C=C\\C/C=C\\C/C=C\\C/C=C\\C/C=C\\CCCC(=O)OCC", "note": "[AMR101, ethyl eicosapentaenoate]", "values": [
      {"measurement": "Apo A1 Week 12 EP Median (IQR)", "setting": "AMR101 2 g/d + statin", "value": "141.0 (26.0) mg/dL"},
      {"measurement": "Apo B Week 12 EP Median (IQR)", "setting": "AMR101 2 g/d + statin", "value": "95.0 (24.0) mg/dL"},
      {"measurement": "Apo B/Apo A1 ratio Week 12 EP Median (IQR)", "setting": "AMR101 2 g/d + statin", "value": "0.7 (0.2)"},
      {"measurement": "Lp (a) Week 12 EP Median (IQR)", "setting": "AMR101 2 g/d + statin", "value": "12.0 (33.0) mg/dL"},
      {"measurement": "Apo A1 Percent change from Baseline Median (IQR)", "setting": "AMR101 2 g/d + statin", "value": "2.0 (13.0) %"},
      {"measurement": "Apo B Percent change from Baseline Median (IQR)", "setting": "AMR101 2 g/d + statin", "value": "1.6 (20.7) %"},
      {"measurement": "Apo B/Apo A1 ratio Percent change from Baseline Median (IQR)", "setting": "AMR101 2 g/d + statin", "value": "0.1 (18.3) %"},
      {"measurement": "Lp (a) Percent change from Baseline Median (IQR)", "setting": "AMR101 2 g/d + statin", "value": "0.0 (24.9) %"},
      {"measurement": "Apo A1 Difference from placebo Estimated median", "setting": "AMR101 2 g/d + statin", "value": "−1.7", "unit": "%"},
      {"measurement": "Apo B Difference from placebo Estimated median", "setting": "AMR101 2 g/d + statin", "value": "−3.8", "unit": "%"},
      {"measurement": "Apo B/Apo A1 ratio Difference from placebo Estimated median", "setting": "AMR101 2 g/d + statin", "value": "−2.0", "unit": "%"},
      {"measurement": "Lp (a) Difference from placebo Estimated median", "setting": "AMR101 2 g/d + statin", "value": 0.0, "unit": "%"},
      {"measurement": "Apo A1 Week 12 EP Median (IQR)", "setting": "AMR101 4 g/d + statin", "value": "137.0 (29.0) mg/dL"},
      {"measurement": "Apo B Week 12 EP Median (IQR)", "setting": "AMR101 4 g/d + statin", "value": "90.0 (25.0) mg/dL"},
      {"measurement": "Apo B/Apo A1 ratio Week 12 EP Median (IQR)", "setting": "AMR101 4 g/d + statin", "value": "0.7 (0.2)"},
      {"measurement": "Lp (a) Week 12 EP Median (IQR)", "setting": "AMR101 4 g/d + statin", "value": "9.0 (31.0) mg/dL"},
      {"measurement": "Apo A1 Percent change from Baseline Median (IQR)", "setting": "AMR101 4 g/d + statin", "value": "−2.9 (12.6) %"},
      {"measurement": "Apo B Percent change from Baseline Median (IQR)", "setting": "AMR101 4 g/d + statin", "value": "−2.2 (16.4) %"},
      {"measurement": "Apo B/Apo A1 ratio Percent change from Baseline Median (IQR)", "setting": "AMR101 4 g/d + statin", "value": "−0.7 (20.3) %"},
      {"measurement": "Lp (a) Percent change from Baseline Median (IQR)", "setting": "AMR101 4 g/d + statin", "value": "0.0 (10.0) %"},
      {"measurement": "Apo A1 Difference from placebo Estimated median", "setting": "AMR101 4 g/d + statin", "value": "−6.9", "unit": "%"},
      {"measurement": "Apo B Difference from placebo Estimated median", "setting": "AMR101 4 g/d + statin", "value": "−9.3", "unit": "%"},
      {"measurement": "Apo B/Apo A1 ratio Difference from placebo Estimated median", "setting": "AMR101 4 g/d + statin", "value": "−2.4", "unit": "%"},
      {"measurement": "Lp (a) Difference from placebo Estimated median", "setting": "AMR101 4 g/d + statin", "value": 0.0, "unit": "%"},
      {"measurement": "Apo-B, Change From Baseline, % (median)", "setting": "[1]", "value": "−2.2", "unit": "%"},
      {"measurement": "Apo-B, End of Treatment (median)", "setting": "[1]", "value": 90.0, "unit": "mg/dL"},
      {"measurement": "Apo-B, Median Change From Baseline IPE 4 g/day vs Placebo, %", "setting": "IPE 4 g/day vs placebo, 12 weeks, Hodges-Lehmann median", "value": "−8.8", "unit": "%"}
    ]}
  ]
}
